How the values were obtained:
[1] = target: Gamma-aminobutyric acid receptor subunit alpha-1/beta-3/gamma-2 (Rattus norvegicus, UniProt P18508+P62813+P63079); assay: Displacement of [3H]-flunitrazepam from recombinant rat GABAA receptor alpha1beta3gamma2S expressed in HEK293 cell membranes after 90 mins by liquid scintillation counting method
[2] = target: Gamma-aminobutyric acid receptor subunit alpha-2/beta-3/gamma-2 (Rattus norvegicus, UniProt P18508+P23576+P63079); assay: Displacement of [3H]-flunitrazepam from recombinant rat GABAA receptor alpha2beta3gamma2S expressed in HEK293 cell membranes after 90 mins by liquid scintillation counting method
[3] = target: Gamma-aminobutyric acid receptor subunit alpha-3/beta-3/gamma-2 (Rattus norvegicus, UniProt P18508+P20236+P63079); assay: Displacement of [3H]-flunitrazepam from recombinant rat GABAA receptor alpha3beta3gamma2S expressed in HEK293 cell membranes after 90 mins by liquid scintillation counting method
[4] = target: GABA A receptor alpha-5/beta-3/gamma-2 (Rattus norvegicus, UniProt P18508+P19969+P63079); assay: Displacement of [3H]-flunitrazepam from recombinant rat GABAA receptor alpha5beta3gamma2S expressed in HEK293 cell membranes after 90 mins by liquid scintillation counting method
[5] = target: GABA A receptor alpha-3/beta-2/gamma-2 (Homo sapiens, UniProt P18507+P34903+P47870); assay: Positive allosteric modulation of recombinant wild type GABAA receptor alpha3beta2gamma2S (unknown origin) expressed in HEK293 cells assessed as potentiation of GABA induced chloride current response treated every 30 secs measured for 2 to 3 secs by patch clamp method; type: cell-based
[6] = target: GABA A receptor alpha-3/beta-2/gamma-2 (Homo sapiens) (UniProt P47870+P18507+P34903); assay: Positive allosteric modulation of recombinant wild type GABAA receptor alpha3beta2gamma2S (unknown origin) expressed in HEK293 cells assessed as potentiation of GABA induced chloride current response relative to 30 uM GABA; type: cell-based
[7] = target: T1, GABA A receptor alpha-2/beta-2/gamma-2 (Homo sapiens, UniProt P18507+P47869+P47870); assay: Positive allosteric modulation of recombinant wild type GABAA receptor alpha2beta2gamma2S (unknown origin) expressed in HEK293 cells assessed as potentiation of GABA induced chloride current response treated every 30 secs measured for 2 to 3 secs by patch clamp method; type: cell-based
[8] = target: GABA A receptor alpha-2/beta-2/gamma-2 (Homo sapiens) (UniProt P47870+P18507+P47869); assay: Positive allosteric modulation of recombinant wild type GABAA receptor alpha2beta2gamma2S (unknown origin) expressed in HEK293 cells assessed as potentiation of GABA induced chloride current response relative to GABA; type: cell-based
[9] = Positive allosteric modulation of recombinant wild type GABAA receptor alpha4beta2gamma2S (unknown origin) expressed in HEK293 cells assessed as potentiation of GABA induced chloride current response treated every 30 secs measured for 2 to 3 secs by patch clamp method; type: cell-based; conditions: Homo sapiens
HEK293 = assay: Positive allosteric modulation of recombinant wild type GABAA receptor alpha4beta2gamma2S (unknown origin) expressed in HEK293 cells assessed as potentiation of GABA induced chloride current response relative to GABA; type: cell-based; conditions: Homo sapiens
[10] = target: Gamma-aminobutyric acid receptor subunit alpha-4/beta-2/delta (Homo sapiens, UniProt O14764+P47870+P48169); assay: Positive allosteric modulation of GABAA receptor alpha4beta2delta (unknown origin); type: protein-complex assay
[11] = target: T2, GABA-A receptor; alpha-1/beta-2/gamma-2 (Homo sapiens, UniProt P14867+P18507+P47870); assay: Positive allosteric modulation of GABAA receptor alpha1beta2gamma2 (unknown origin); type: protein-complex assay
[12] = target: Gamma-aminobutyric acid receptor subunit alpha-1 (Rattus norvegicus, UniProt P62813); assay: Agonist activity at GABAA receptor in Sprague-Dawley rat forebrain membranes assessed as enhancement of [3H]muscimol binding after 2 hrs by radiometric analysis; design: species or system Membrane
[13] = target: Gamma-aminobutyric acid receptor subunit alpha-1 (Rattus norvegicus) (UniProt P62813); assay: Agonist activity at GABAA receptor in Sprague-Dawley rat forebrain membranes assessed as enhancement of [3H]muscimol binding at 1 to 100 uM after 2 hrs by radiometric analysis relative to control; conditions: Membrane
[14] = target: T3, Glycine receptor subunit alpha-1 (Homo sapiens, UniProt P23415); assay: Positive allosteric modulation of recombinant human glycine receptor alpha1 expressed in HEK293 cells assessed as increase in glycine-induced current at -60 mV holding potential by whole cell patch-clamp method; type: cell-based
T3 sequence (P23415 whole entry): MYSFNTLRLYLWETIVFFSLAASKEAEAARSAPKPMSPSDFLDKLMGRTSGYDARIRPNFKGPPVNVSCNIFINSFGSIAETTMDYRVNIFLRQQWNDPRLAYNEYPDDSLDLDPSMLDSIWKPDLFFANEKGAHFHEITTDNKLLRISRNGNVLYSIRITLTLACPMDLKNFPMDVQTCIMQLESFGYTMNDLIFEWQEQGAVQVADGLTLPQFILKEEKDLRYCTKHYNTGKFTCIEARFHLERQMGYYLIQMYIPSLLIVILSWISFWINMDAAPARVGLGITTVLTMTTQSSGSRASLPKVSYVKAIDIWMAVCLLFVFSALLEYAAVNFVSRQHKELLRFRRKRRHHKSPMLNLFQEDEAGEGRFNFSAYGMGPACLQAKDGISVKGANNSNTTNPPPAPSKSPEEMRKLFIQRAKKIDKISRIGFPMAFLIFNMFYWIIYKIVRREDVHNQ

[15] = target: T4, Glycine receptor subunit alpha-1 (Homo sapiens) (UniProt P23415); assay: Positive allosteric modulation of recombinant human glycine receptor alpha1 expressed in HEK293 cells assessed as potentiation of glycine-induced current at -60 mV holding potential by whole cell patch-clamp method relative to 10 uM glycine; type: cell-based
T4 sequence (whole entry): T3 sequence (P23415 whole entry)

[16] = target: Glycine receptor (alpha-1/beta) (Homo sapiens, UniProt P23415+P48167); assay: Inhibition of recombinant human glycine receptor alpha1beta expressed in HEK293 cells; type: cell-based
[17] = target: Glycine receptor subunit alpha-2/beta (Homo sapiens, UniProt P23416+P48167); assay: Inhibition of recombinant human glycine receptor alpha2beta expressed in HEK293 cells; type: cell-based
[18] = target: Glycine receptor alpha-3/beta (Homo sapiens, UniProt O75311+P48167); assay: Inhibition of recombinant human glycine receptor alpha3beta expressed in HEK293 cells; type: cell-based
[19] = target: Glycine receptor subunit alpha-3 (Homo sapiens, UniProt O75311); assay: Positive allosteric modulation of recombinant human glycine receptor alpha3 expressed in CHOK1 cells at -60 mV holding potential by whole cell patch-clamp method; type: cell-based
[20] = target: Glycine receptor subunit alpha-3 (Homo sapiens) (UniProt O75311); assay: Positive allosteric modulation of recombinant human glycine receptor alpha3 expressed in CHOK1 cells assessed as potentiation of glycine-induced current at 20 uM at -60 mV holding potential by whole cell patch-clamp method relative to glycine; type: cell-based
[21] = target: T4, Glycine receptor subunit alpha-1 (Homo sapiens); assay: Positive allosteric modulation of recombinant human glycine receptor alpha1 expressed in CHOK1 cells assessed as potentiation of glycine-induced current at 10 uM at -60 mV holding potential by whole cell patch-clamp method relative to glycine; type: cell-based
[22] = target: T5, GABA-A receptor; alpha-1/beta-3/gamma-2 (Homo sapiens) (UniProt P14867+P18507+P28472); assay: Positive allosteric modulation of recombinant human GABAA receptor alpha1beta3gamma2 expressed in CHOK1 cells assessed as potentiation of GABA-induced current at 10 uM at -60 mV holding potential by whole cell patch-clamp method relative to GABA; type: cell-based
[23] = target: T6, GABA-A receptor; alpha-2/beta-3/gamma-2 (Homo sapiens) (UniProt P18507+P28472+P47869); assay: Positive allosteric modulation of recombinant human GABAA receptor alpha2beta3gamma2 expressed in CHOK1 cells assessed as potentiation of GABA-induced current at 10 uM at -60 mV holding potential by whole cell patch-clamp method relative to GABA; type: cell-based
[24] = target: GABA A receptor alpha-1/beta-1/gamma-2 (Homo sapiens, UniProt P14867+P18505+P18507); assay: Agonist activity at recombinant human GABAA receptor alpha1beta1gamma2L expressed in Xenopus laevis oocytes incubated for 30 secs by electrophysiological method; type: cell-based
[25] = target: T2, GABA-A receptor; alpha-1/beta-2/gamma-2; assay: Agonist activity at recombinant human GABAA receptor alpha1beta2gamma2L expressed in Xenopus laevis oocytes incubated for 30 secs by electrophysiological method; type: cell-based
[26] = target: T1, GABA A receptor alpha-2/beta-2/gamma-2; assay: Agonist activity at recombinant human GABAA receptor alpha2beta2gamma2L expressed in Xenopus laevis oocytes incubated for 30 secs by electrophysiological method; type: cell-based
[27] = target: T5, GABA-A receptor; alpha-1/beta-3/gamma-2 (Homo sapiens); assay: Positive allosteric modulation of recombinant human GABAA receptor alpha1beta3gamma2 expressed in Xenopus oocytes assessed as potentiation of GABA induced chloride current response relative to GABA; type: cell-based
[28] = target: GABA-A receptor; alpha-2/beta-3/gamma-2 (Homo sapiens, UniProt P18507+P28472+P47869); assay: Displacement of [3H]Ro15-1788 from human GABAA receptor alpha2beta3gamma2 expressed in LTK cells […]; type: cell-based
[29] = target: T7, GABA A receptor alpha-4/beta-3/gamma-2 (Homo sapiens, UniProt P18507+P28472+P48169); assay: Displacement of [3H][…] from human GABAA receptor alpha4beta3gamma2 expressed in LTK cells […]; type: cell-based
[30] = target: GABA-A receptor; alpha-5/beta-3/gamma-2 (Homo sapiens, UniProt P18507+P28472+P31644); assay: Displacement of [3H]Ro15-1788 from human GABAA receptor alpha5beta3gamma2 expressed in LTK cells […]; type: cell-based
[31] = target: T6, GABA-A receptor; alpha-2/beta-3/gamma-2 (Homo sapiens); assay: Positive allosteric modulation of recombinant human GABAA receptor alpha2beta3gamma2 expressed in Xenopus oocytes assessed as potentiation of GABA induced chloride currents relative to GABA; type: cell-based
[32] = target: GABA-A receptor; alpha-3/beta-3/gamma-2 (Homo sapiens) (UniProt P18507+P28472+P34903); assay: Positive allosteric modulation of recombinant human GABAA receptor alpha3beta3gamma2 expressed in Xenopus laevis oocytes assessed as potentiation of GABA induced chloride currents relative to GABA; type: cell-based
[33] = target: T7, GABA A receptor alpha-4/beta-3/gamma-2; assay: Positive allosteric modulation of recombinant human GABAA receptor alpha4beta3gamma2 expressed in Xenopus laevis oocytes assessed as potentiation of GABA induced chloride currents relative to GABA; type: cell-based
[34] = target: GABA-A receptor; alpha-5/beta-3/gamma-2 (Homo sapiens) (UniProt P18507+P28472+P31644); assay: Positive allosteric modulation of recombinant human GABAA receptor alpha5beta3gamma2 expressed in Xenopus laevis oocytes assessed as potentiation of GABA induced chloride currents relative to GABA; type: cell-based
[35] = target: GABA-A receptor; alpha-6/beta-3/gamma-2 (Homo sapiens) (UniProt P18507+P28472+Q16445); assay: Positive allosteric modulation of recombinant human GABAA receptor alpha6beta3gamma2 expressed in Xenopus oocytes assessed as potentiation of GABA induced chloride currents relative to GABA; type: cell-based
[36] = Positive allosteric modulation of wild-type C57BL/6J mouse mitral cell GABAA receptor at 9 to 10 mV holding potential by whole cell patch-clamp method

T1 sequence (P47870 whole entry): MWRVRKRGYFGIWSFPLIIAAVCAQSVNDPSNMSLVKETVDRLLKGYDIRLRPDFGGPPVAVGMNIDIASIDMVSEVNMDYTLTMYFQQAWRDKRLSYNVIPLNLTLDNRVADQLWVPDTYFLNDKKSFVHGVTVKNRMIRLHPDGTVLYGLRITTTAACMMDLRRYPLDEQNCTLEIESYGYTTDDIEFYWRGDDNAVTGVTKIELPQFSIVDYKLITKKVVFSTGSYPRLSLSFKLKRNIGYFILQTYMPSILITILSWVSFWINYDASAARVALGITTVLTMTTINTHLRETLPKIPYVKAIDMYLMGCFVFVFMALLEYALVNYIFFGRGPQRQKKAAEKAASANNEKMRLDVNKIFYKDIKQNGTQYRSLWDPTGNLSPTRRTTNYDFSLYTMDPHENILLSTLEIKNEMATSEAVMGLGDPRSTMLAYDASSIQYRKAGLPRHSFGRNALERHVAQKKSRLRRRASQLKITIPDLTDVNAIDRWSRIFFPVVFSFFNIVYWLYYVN
T1 sequence (P18507 whole entry): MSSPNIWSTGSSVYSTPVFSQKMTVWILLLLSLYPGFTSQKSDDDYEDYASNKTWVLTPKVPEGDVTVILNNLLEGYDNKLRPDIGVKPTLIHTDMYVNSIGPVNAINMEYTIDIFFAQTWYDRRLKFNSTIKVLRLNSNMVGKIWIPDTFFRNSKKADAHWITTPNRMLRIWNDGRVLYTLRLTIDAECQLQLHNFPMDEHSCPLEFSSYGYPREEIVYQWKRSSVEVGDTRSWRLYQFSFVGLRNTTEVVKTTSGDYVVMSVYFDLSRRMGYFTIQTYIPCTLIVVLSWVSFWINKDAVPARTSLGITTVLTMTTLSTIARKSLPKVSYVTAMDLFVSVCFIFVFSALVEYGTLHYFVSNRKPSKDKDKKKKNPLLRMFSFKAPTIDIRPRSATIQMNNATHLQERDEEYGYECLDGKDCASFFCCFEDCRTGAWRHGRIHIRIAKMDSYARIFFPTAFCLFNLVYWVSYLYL
T1 sequence (P47869 whole entry): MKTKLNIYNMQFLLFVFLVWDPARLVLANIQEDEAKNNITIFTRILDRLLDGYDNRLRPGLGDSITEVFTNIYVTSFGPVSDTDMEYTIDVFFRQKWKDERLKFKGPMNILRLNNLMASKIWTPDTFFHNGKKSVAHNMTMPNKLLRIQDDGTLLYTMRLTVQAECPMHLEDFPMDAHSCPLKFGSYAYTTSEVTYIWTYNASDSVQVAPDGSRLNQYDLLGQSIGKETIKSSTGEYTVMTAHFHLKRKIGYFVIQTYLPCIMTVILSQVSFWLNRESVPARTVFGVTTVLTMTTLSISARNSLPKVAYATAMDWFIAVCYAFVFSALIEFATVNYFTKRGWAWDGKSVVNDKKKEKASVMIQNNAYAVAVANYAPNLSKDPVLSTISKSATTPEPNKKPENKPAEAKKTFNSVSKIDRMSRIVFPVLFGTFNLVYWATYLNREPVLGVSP
T2 sequence (P14867 whole entry): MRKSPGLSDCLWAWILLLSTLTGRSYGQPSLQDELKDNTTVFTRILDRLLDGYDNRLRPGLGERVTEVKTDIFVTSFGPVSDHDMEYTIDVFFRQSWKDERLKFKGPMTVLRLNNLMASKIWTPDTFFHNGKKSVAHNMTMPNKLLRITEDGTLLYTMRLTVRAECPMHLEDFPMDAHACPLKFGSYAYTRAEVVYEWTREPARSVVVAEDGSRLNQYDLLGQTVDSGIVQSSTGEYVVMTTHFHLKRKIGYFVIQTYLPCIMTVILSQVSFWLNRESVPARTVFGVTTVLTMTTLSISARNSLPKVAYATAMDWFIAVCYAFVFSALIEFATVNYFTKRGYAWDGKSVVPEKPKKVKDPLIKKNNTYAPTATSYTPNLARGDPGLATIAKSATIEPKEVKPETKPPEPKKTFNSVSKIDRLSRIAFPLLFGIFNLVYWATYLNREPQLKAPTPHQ
T2 sequence (P47870 whole entry): as the sequence (P47870 whole entry) above
T2 sequence (P18507 whole entry): as the sequence (P18507 whole entry) above
Chain of Glycine receptor subunit alpha-3 (Homo sapiens) (O75311 whole entry): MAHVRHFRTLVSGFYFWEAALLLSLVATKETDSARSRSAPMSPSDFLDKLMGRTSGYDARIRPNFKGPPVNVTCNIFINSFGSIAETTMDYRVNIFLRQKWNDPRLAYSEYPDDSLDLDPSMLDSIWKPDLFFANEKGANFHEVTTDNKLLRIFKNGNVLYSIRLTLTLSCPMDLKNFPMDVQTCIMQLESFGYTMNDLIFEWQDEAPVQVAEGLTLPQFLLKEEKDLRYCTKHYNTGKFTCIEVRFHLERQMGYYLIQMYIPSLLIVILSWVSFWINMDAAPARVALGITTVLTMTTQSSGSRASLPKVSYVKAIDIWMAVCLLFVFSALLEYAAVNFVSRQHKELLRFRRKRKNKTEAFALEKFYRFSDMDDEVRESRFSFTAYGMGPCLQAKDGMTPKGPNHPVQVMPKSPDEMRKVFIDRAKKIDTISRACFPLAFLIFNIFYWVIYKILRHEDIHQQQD
Chain of Glycine receptor subunit alpha-3 (O75311 whole entry): as above
Chain of Glycine receptor alpha-3/beta (O75311 whole entry): as above
Chain of Glycine receptor alpha-3/beta (P48167 whole entry): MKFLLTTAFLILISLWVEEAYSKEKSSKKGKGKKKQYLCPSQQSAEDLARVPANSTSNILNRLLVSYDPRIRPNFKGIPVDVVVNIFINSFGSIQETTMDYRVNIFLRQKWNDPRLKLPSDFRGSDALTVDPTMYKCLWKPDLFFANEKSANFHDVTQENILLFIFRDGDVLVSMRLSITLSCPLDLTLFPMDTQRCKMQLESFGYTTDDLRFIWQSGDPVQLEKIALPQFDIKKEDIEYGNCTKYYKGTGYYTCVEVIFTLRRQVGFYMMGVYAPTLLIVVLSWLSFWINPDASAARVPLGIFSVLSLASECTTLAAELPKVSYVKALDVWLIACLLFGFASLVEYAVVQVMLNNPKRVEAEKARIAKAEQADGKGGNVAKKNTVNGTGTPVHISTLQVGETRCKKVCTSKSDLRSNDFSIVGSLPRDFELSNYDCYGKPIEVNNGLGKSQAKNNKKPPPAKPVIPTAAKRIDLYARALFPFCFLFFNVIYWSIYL
Chain of Gamma-aminobutyric acid receptor subunit alpha-2/beta-3/gamma-2 (P18508 whole entry): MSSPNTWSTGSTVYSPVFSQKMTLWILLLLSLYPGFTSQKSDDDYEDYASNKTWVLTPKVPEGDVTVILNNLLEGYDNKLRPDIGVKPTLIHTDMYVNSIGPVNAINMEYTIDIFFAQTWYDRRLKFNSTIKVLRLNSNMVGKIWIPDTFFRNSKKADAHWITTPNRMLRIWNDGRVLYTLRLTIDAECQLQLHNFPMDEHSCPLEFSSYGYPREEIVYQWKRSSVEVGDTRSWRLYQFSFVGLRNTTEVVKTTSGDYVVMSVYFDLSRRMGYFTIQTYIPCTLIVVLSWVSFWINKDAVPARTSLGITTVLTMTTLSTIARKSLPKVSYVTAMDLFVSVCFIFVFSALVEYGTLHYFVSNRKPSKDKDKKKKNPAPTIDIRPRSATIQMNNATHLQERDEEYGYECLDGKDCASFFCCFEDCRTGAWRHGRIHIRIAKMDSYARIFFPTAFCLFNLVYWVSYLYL
Chain of Gamma-aminobutyric acid receptor subunit alpha-2/beta-3/gamma-2 (P23576 whole entry): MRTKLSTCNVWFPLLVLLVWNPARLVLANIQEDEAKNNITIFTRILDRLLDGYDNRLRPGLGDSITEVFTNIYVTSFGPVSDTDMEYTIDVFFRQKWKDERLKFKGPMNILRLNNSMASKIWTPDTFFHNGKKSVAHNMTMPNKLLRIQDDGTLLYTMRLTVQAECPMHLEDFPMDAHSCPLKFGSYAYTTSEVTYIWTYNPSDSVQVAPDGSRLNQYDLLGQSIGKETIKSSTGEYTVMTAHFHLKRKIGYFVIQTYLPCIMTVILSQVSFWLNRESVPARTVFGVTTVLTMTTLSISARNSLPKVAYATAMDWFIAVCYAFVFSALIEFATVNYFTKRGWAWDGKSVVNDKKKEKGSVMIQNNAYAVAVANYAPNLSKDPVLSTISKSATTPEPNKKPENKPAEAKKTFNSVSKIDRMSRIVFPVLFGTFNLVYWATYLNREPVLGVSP
Chain of Gamma-aminobutyric acid receptor subunit alpha-2/beta-3/gamma-2 (P63079 whole entry): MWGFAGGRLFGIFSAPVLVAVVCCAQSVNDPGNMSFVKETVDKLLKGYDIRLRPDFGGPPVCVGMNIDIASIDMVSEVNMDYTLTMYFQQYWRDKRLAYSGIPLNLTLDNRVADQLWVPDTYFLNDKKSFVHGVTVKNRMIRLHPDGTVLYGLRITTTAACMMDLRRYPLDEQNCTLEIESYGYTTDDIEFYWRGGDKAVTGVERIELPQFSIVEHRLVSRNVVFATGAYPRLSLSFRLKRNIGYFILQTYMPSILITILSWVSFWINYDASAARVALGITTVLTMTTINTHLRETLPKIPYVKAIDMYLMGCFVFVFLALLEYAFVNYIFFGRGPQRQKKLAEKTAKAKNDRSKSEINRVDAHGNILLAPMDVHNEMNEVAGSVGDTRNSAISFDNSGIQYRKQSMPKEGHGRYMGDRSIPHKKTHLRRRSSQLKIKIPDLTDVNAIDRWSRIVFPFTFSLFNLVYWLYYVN
Chain of GABA A receptor alpha-5/beta-3/gamma-2 (P18508 whole entry): as the sequence (P18508 whole entry) above
Chain of GABA A receptor alpha-5/beta-3/gamma-2 (P19969 whole entry): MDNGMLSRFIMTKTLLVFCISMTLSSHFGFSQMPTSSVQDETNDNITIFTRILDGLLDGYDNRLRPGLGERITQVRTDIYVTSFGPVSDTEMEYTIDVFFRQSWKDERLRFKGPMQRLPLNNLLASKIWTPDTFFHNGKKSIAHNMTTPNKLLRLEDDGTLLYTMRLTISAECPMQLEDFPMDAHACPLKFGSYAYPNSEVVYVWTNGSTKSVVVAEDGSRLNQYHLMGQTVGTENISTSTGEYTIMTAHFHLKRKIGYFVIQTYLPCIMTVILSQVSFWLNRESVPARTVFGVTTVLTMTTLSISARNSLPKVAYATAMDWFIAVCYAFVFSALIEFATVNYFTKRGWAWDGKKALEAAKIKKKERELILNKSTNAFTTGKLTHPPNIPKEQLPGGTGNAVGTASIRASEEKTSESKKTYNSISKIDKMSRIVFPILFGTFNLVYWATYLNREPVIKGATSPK
Chain of GABA A receptor alpha-5/beta-3/gamma-2 (P63079 whole entry): as the sequence (P63079 whole entry) above

`C#Cc1ccc2c(c1)C(c1ccccc1F)=N[C@H](C)c1c(C(=O)NC)ncn1-2` gave a Ki [1] of 0.85 µM, a Ki [2] of 0.36 µM and a Ki [3] of 0.66 µM. For the same compound, the Ki [4] was 0.055 µM.
Work on `COc1ccc(C(=O)/C=C/c2cc(OC)ccc2O)cc1` yielded an EC50 [5] of 17.7 µM, a fold change (FC) [6] of 19.6 and an EC50 [7] of 7.6 µM. It also gave a fold change (FC) [8] of 13.6, an EC50 [9] of 8.1 µM and a fold change (FC) (HEK293) of 6.2.
Compound `C[C@@]1(O)CC[C@H]2[C@H](CC[C@@H]3[C@@H]2CC[C@]2(C)[C@@H](C(=O)Cn4cc(C#N)cn4)CC[C@@H]32)C1` [ZURANOLONE] has an EC50 [10] of 0.163 µM and an EC50 [11] of 0.374 µM.
`CCCCNC(=O)c1cc(-c2ccc(F)cc2F)ccc1O` showed an EC50 [12] of 15 µM and an Emax [13] of 56%.
In the case of `C=C[C@]12CN(C)[C@@H]3[C@H]4CO[C@H](C[C@H]41)[C@]1(C(=O)Nc4ccccc41)[C@@H]32` [GELSEMINE], the EC50 [14] is reported as 0.59 µM, the fold change (FC) [15] is reported as 0.55 and the IC50 [16] is reported as 30 to 50 µM. The IC50 [17] was 30 to 50 µM and the IC50 [18] was 30 to 50 µM.
With `O=S(=O)(NCCOc1cccc2cccnc12)c1ccc(F)cc1` the EC50 [19] was 3.9 µM, the fold change (FC) [20] was 28 and the fold change (FC) [21] was 39.7. The fold change (FC) [22] was 0 and the fold change (FC) [23] was 0.
Work on `Oc1c(Br)cc(Br)cc1-c1cc(Br)cc(Br)c1O` [BROMOPHENE] yielded an EC50 [24] of 0.32 µM, an EC50 [25] of 0.72 µM and an EC50 [26] of 1.08 µM.
In the case of `COc1ccc(-n2nc3c4cc(Cl)ccc4[nH]cc-3c2=O)cc1`, the fold change (FC) [27] is reported as 10, the Ki [28] is reported as > 10 µM and the Ki [29] is reported as > 10 µM. For the same compound, the Ki [30] was 0.0003 µM, the fold change (FC) [31] was 8 and the fold change (FC) [32] was 5. The fold change (FC) [33] was 2, the fold change (FC) [34] was 2 and the fold change (FC) [35] was 20.
With `CC1CC(=O)C=C(Nc2ccc(OC(F)(F)F)cc2)C1` (configuration not stated) the EC50 [36] was 24.5 µM.
